Key:
[1] = cited from earlier work
[2] = system: DOP receptor dephosphorylation at T361 and S363; assay: DOP receptor dephosphorylation after DPDPE washout with phosphatase inhibitors (Western blot, HEK293 cells); format: cell-based, human; conditions: HEK293 HA-hDOP; inhibitor preincubated 30 min, 1 µM DPDPE 10 min, citrate washout, 0-40 min

| Compound | Effective dose in most behavior assays [1] [mg/kg] | Effect on DOP receptor dephosphorylation at T361 and S363 [2] |
| --- | --- | --- |
| CCN(CC)C(=O)c1ccc(C(=C2CCNCC2)c2ccccc2)cc1 [AR-M1000390, N,N-Diethyl-4-(phenylpiperidin-4-ylidenemethyl)benzamide] | 10 | – |
| COC[C@@H]([C@H](O)[C@H](O)C(=O)NCC[C@H](C)c1nc(/C=C/C[C@@H]2O[C@]3(C[C@@H](O)[C@@H]2C)O[C@H]([C@H](C[C@H](O)[C@H](C)[C@H](O)[C@H](C)/C=C(C)/C(C)=C/C=C/C(C)=C\C#N)OC)[C@H](OP(=O)(O)O)C3(C)C)co1)N(C)C [calyculin A] | – | inhibited in a concentration-dependent manner only by calyculin A |
| CCN(CC)C(=O)c1ccc(C2=CC3(CCNCC3)Oc3cccc(O)c32)cc1 [ADL5859, N,N-diethyl-4-(5-hydroxyspiro[chromene-2,4′-piperidine]-4-yl)benzamide] | 10 | – |

From publication PMC7244497 (Scientific Reports, 2020)
